Measurements: patent US20240156972A1 (priority 2021, published 2024)
Numbered stars: 1 amine (or outer) side, 2 acyl side, 3 side chain; on linkers, the order of the positions; unused ones are H or OH. Square brackets hold non-standard residues; d marks the D form. Peptide text beside a SMILES is read from it. X1 = O=C(C(Cc1cccc(S(=O)(=O)F)c1)N[*:1])[*:2]; Lys(N3) = [N-]=[N+]=NCCCC[C@H](N)C(=O)O; X2 = N=C(N)CCCC[C@H](N[*:1])C(=O)[*:2]; Y‑OSO2F = fluorosulfate Tyr; N3‑K = azido-Lys

Legend:
[1] = system: PSMA-expressing human embryonic kidney (HEK) cells; experiment: ARM 1.2-mediated ADCP by U937 human monocytes, 2-color flow cytometry; type: cell-based
Procedure: ADCP of PSMA-expressing human cells by human monocytes was assessed in the presence of ARM 1.2 and anti-gD1 mouse IgG2a antibody (FIG. 12). ADCP was determined by 2-color flow cytometry assays, where target cell phagocytosis was measured by double positive cell events consisting of FL-1 dye-labeled U937 human monocytes and FL-4 dye-labeled engineered human embryonic kidney (HEK) cells expressing PSMA.
Robust ADCP was only observed when cell surface PSMA and anti-HSV antibody are both present (HEK+_EXP).

[2] = Stability of aryl sulfonyl fluoride group in PBS by 19F NMR; type: physicochemical; details: PBS (90% PBS), 10% D2O, room temperature, F− appearance, read-out: half-life of sulfonyl fluoride hydrolysis (converted)
Procedure: A 700 MHz NMR was used to measure ^19F NMR spectra. Bruker TopSpin 4.0.9 was used to process and analyze spectra. GraphPad Prism 8 software was used to visualize and perform non-linear regression of acquired data.
Peptide 7 (ASF-gDR) was used to investigate the stability of the meta-aryl sulfonyl fluoride (ASF) group in 1×PBS at room temperature. The sample was prepared at a 0.5 mM concentration in 90% PBS, 10% D2O. A 700 MHz NMR was used to monitor sulfonyl fluoride disappearance and fluoride (F^− (aq)) appearance overtime, relative to a TFA internal standard. To quantify fluoride loss and gain, peaks were positively phased and integrated relative to the TFA internal standard, which was held constant at three fluoride atoms. A plot of fluoride leaving group appearance over time was fitted with the first order decay equation.
Half-life was calculated from a plot of integrated F^− over time using Equation 1.

[3] = Stability of covalent antibody-binding peptides in 1×PBS by LC-HRMS; type: physicochemical; details: 500 μM, room temperature
Procedure: Liquid chromatography-high resolution mass spectrometry (LC-HRMS) data was obtained on a BRUKER MicroTOF II mass spectrometer. Samples were dissolved in 1×PBS at 500 μM concentrations and were monitored for stability at room temperature over indicated periods of time. Specific m/z −20 amu (loss of H^+ and F^−) and m/z −2 amu (F/OH exchange) masses were monitored to probe off-pathway cyclization and hydrolysis reactions, respectively.
To evaluate the stability of peptide 5 (gDR(F10FSY)), the peptide (500 μM) was incubated in 1×PBS at room temperature and analyzed by LC-HRMS at 0, 24, 48 and 72 hours (FIG. 83). […] Hydrolyzed peptide appeared to elute just before intact peptide after 3 days of incubation.
To evaluate the stability of peptide 7 (ASF-gDR), the peptide (500 μM) was incubated in 1×PBS at room temperature and analyzed by LC-HRMS at 0, 24, 48 and 72 hours.

CSCC[C@H](NC(=O)[C@@H](C)NC(=O)[C@@H](CC(=O)O)NC(=O)[C@H]1CCCN1C(=O)[C@@H](CC(N)=O)NC(=O)[C@H](CCCNC(=N)N)NC(=O)[C@@H](Cc1ccccc1)NC(=O)[C@H](CCCNC(=N)N)NC(=O)CNC(=O)[C@H](CCCCN)NC(=O)[C@@H](CC(=O)O)NC(=O)[C@H](CC(C)C)NC(=O)[C@H](CCCCn1cc(COCCOCCOCCOCCOCCOCCOCCOCCNC(=O)NCCCC[C@H](NC(=O)N[C@@H](CCC(=O)O)C(=O)O)C(=O)O)nn1)NC(C)=O)C(=O)N[C@H](CCCCN)C(=O)N[C@@H](CC(C)C)C(N)=O [ARM 1.2, GUL-PEG8-HSVqD1]
ADCP ([1]; HEK+_EXP: cell surface PSMA and anti-HSV antibody both present): Robust ADCP | ADCP in control samples ([1]; isotype IgG, no antibody, free competitor, or HEK cells without PSMA): complete lack of ADCP

CSCC[C@H](NC(=O)[C@H](CCCCC(=N)N)NC(=O)[C@H](CC(C)C)NC(=O)[C@H](CCCCN=[N+]=[N-])NC(=O)C(Cc1cccc(S(=O)(=O)F)c1)NC(C)=O)C(=O)N[C@@H](C)C(=O)N[C@@H](CC(=O)O)C(=O)N1CCC[C@H]1C(=O)N[C@@H](CC(N)=O)C(=O)N[C@@H](CCCNC(=N)N)C(=O)N[C@@H](Cc1ccccc1)C(=O)N[C@@H](CCCNC(=N)N)C(=O)NCC(=O)N[C@@H](CCCNC(=N)N)C(=O)N[C@@H](CC(=O)O)C(=O)N[C@@H](CC(C)C)C(N)=O (some centres unmarked) [Peptide 7] (Ac-[X1][Lys(N3)]L[X2]MADPNRFRGRDL-NH2)
half-life at 0.5 mM [2]: 523 min | SuFEx hydrolysis ([3]; after 24 hours): ~50%

Ac-(N3-K)-LRMADPNR-(Y-OSO2F)-RGRDL ({Ac-N3‑K}-LRMADPNR-{Y‑OSO2F-Arg-Gly-Arg-Asp-Leu-NH2}) [Peptide 5]
stability by LC-HRMS ([3]; 0-72 hours): stable compound
